From patent US20150105252A1, “SUBSTITUTED PYRAZOLES AS HERBICIDES” (E I DU PONT DE NEMOURS AND COMPANY, priority 2013, published 2015)

Experiments:
[1] = system: barnyardgrass; assay: Test A preemergence; assay type: in vivo, Echinochloa crus-galli
Procedure, shortened: (§1)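 Ratings express plant response from 0 (no effect) to 100 (complete control), judged visually against untreated controls after approximately 10 days in the greenhouse. Preemergence applications were made as directed soil sprays onto seeded loam–sand mix, and postemergence applications onto 2–10 cm plants at one- to two-leaf stage.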

[2] = system: corn; assay: Test A preemergence; assay type: in vivo, Zea mays
Procedure, shortened: as §1

[3] = system: barnyardgrass; assay: Test A postemergence; assay type: in vivo, Echinochloa crus-galli
Procedure, shortened: as §1

[4] = system: velvetleaf; assay: Test A postemergence; assay type: in vivo, Abutilon theophrasti
Procedure, shortened: as §1

[5] = system: wheat; assay: Test A postemergence; assay type: in vivo, Triticum aestivum
Procedure, shortened: as §1

[6] = system: sedge, umbrella; assay: Test B flood; assay type: in vivo, Cyperus difformis; conditions: 250 g ai/ha, visual rating on 0 to 100 scale (0 no effect, 100 complete control), 13 to 15 days
Procedure, shortened: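 Paddy-water application: seedlings at 2-leaf stage, flood depth 3 cm maintained for the test duration. Evaluation after 13–15 days in the greenhouse by eye relative to controls; 0–100 scale.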

[7] = system: ryegrass, Italian; assay: Test C preemergence; assay type: in vivo, Lolium multiflorum; conditions: for Plant response rating, Ryegrass, Italian: Preemergence, scale 0 to 100
Procedure, shortened: (§2)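 Seeds sown in loam–sand blend and treated preemergence with test chemicals in non-phytotoxic solvent with surfactant; postemergence plants in peat-based medium, treated at 2–18 cm (1- to 4-leaf stage). Greenhouse 13 to 15 days, then visual rating versus controls, 0 (no effect) to 100 (complete control).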

[8] = system: pigweed; assay: Test C preemergence; assay type: in vivo, Amaranthus retroflexus; conditions: for Plant response rating (scale of 0 to 100), Pigweed: 250 g ai/ha
Procedure, shortened: as §2

[9] = system: soybean; assay: Test C preemergence; assay type: in vivo, Glycine max; conditions: for Plant response rating (scale of 0 to 100), Soybean: 250 g ai/ha
Procedure, shortened: as §2

[10] = system: waterhemp; assay: Test C preemergence; assay type: in vivo, Amaranthus rudis; conditions: for Plant response rating (scale of 0 to 100), Waterhemp: 250 g ai/ha
Procedure, shortened: as §2

[11] = system: ryegrass, Italian; assay: Test C postemergence; assay type: in vivo, Lolium multiflorum; conditions: for Plant response rating (scale of 0 to 100 where 0 is no effect and 100 is complete control), Ryegrass, Italian: Postemergence, 31 g ai/ha, visually evaluated after 13 to 15 days; for Ryegrass, Italian plant response rating / Plant response rating, Ryegrass, Italian: postemergence; for Ryegrass, Italian plant response rating: 62 g ai/ha, scale 0 to 100
Procedure, shortened: as §2

[12] = system: johnsongrass; assay: Test C postemergence; assay type: in vivo, Sorghum halepense; conditions: for Plant response rating (scale of 0 to 100 where 0 is no effect and 100 is complete control), Johnsongrass: Postemergence, 31 g ai/ha, visually evaluated after 13 to 15 days
Procedure, shortened: as §2

[13] = system: oat, wild; assay: Test C postemergence; assay type: in vivo, Avena fatua; conditions: for Plant response rating (scale of 0 to 100 where 0 is no effect and 100 is complete control), Oat, Wild: Postemergence, 31 g ai/ha, visually evaluated after 13 to 15 days; for Oat, Wild plant response rating / Plant response rating, Oat, Wild: postemergence; for Oat, Wild plant response rating: 62 g ai/ha, scale 0 to 100
Excerpt: Seeds of plant species selected from blackgrass (Alopecurus myosuroides), ryegrass, Italian (Italian ryegrass, Lolium multiflorum), wheat (winter wheat, Triticum aestivum), galium (catchweed bedstraw, Galium aparine), corn (Zea mays), crabgrass, large (large crabgrass, Digitaria sanguinalis), foxtail, giant (giant foxtail, Setaria faberii), johnsongrass (Sorghum halepense), lambsquarters (Chenopodium album), morningglory (Ipomoea coccinea), nutsedge, yellow (yellow nutsedge, Cyperus esculentus), pigweed (redroot pigweed, Amaranthus retroflexus), ragweed (common ragweed, Ambrosia elation), soybean (Glycine max), barnyardgrass (Echinochloa crus-galli), oilseed rape (Brassica napus), waterhemp (common waterhemp, Amaranthus rudis), oat, wild (wild oat, Avena fatua), kochia (Kochia scoparia), Surinam grass (Brachiaria decumbens), foxtail, green (green foxtail, Setaria viridis), goosegrass (Eleusine indica), bromegrass, downy (downy bromegrass, Bromus tectorum), nightshade (eastern black nightshade, Solanum ptycanthum), cocklebur (common cocklebur, Xanthium strumarium), cupgrass, woolly (woolly cupgrass, Eriochloa villosa), bermudagrass (Cynodon dactylon), sunflower, (common oilseed sunflower, Helianthus annuus), Russian thistle (Salsola kali), and velvetleaf (Abutilon theophrasti) were planted into a blend of loam soil and sand and treated preemergence with test chemicals formulated in a non-phytotoxic solvent mixture which included a surfactant.
At the same time, plants selected from these crop and weed species and also chickweed (common chickweed, Stellaria media), canarygrass (littleseed canarygrass, Phalaris minor), and deadnettle (henbit deadnettle, Lamium amplexicaule), were planted in pots containing Redi-Earth® planting medium (Scotts Company, 14111 Scottslawn Road, Marysville, Ohio 43041) comprising spaghnum peat moss, vermiculite, wetting agent and starter nutrients and treated with postemergence applications of test chemicals formulated in the same manner. Plants ranged in height from 2 to 18 cm (1- to 4-leaf stage) for postemergence treatments. Treated plants and controls were maintained in a greenhouse for 13 to 15 days, after which time all species were compared to controls and visually evaluated. Plant response ratings, summarized in Table C, are based on a scale of 0 to 100 where 0 is no effect and 100 is complete control. A dash (-) response means no test result.

[14] = preemergence, 125 g ai/ha, visual injury, 0 to 100 scale, approx. 10 days
[15] = preemergence, 500 g ai/ha, visual injury after approx. 10 days, 0 to 100 scale (0 no effect, 100 complete control)
[16] = Postemergence, 500 g ai/ha, 0 to 100 scale (0 no effect, 100 complete control)
[17] = postemergence, 125 g ai/ha, about 10 days, visual rating on 0 to 100 scale (0 no effect, 100 complete control)
[18] = preemergence, 31 g ai/ha, visual rating, scale 0 to 100 (0 no effect, 100 complete control), 13 to 15 days
[19] = Preemergence, 4 g ai/ha, scale 0 to 100
[20] = Preemergence, 8 g ai/ha, scale 0 to 100
[21] = Preemergence, 16 g ai/ha, scale 0 to 100
[22] = Postemergence, 500 g ai/ha, visual rating after approx. 10 days, 0 to 100 scale (0 no effect, 100 complete control)
[23] = preemergence, 62 g ai/ha, scale 0 to 100 (0 no effect, 100 complete control), 13 to 15 days
[24] = preemergence, 125 g ai/ha, scale 0 to 100, 0 is no effect, 100 is complete control
[25] = 250 g ai/ha, scale 0 to 100 (0 no effect, 100 complete control)
[26] = 125 g ai/ha, scale 0 to 100, 0 no effect, 100 complete control
[27] = postemergence, 250 g ai/ha, scale 0 to 100 (0 no effect, 100 complete control)
[28] = postemergence, 125 g ai/ha, scale 0 to 100, 0 no effect, 100 complete control
[29] = Preemergence, 500 g ai/ha, 0 to 100 scale, 0 no effect, 100 complete control
[30] = preemergence, 31 g ai/ha, scale 0 to 100 (0 no effect, 100 complete control), 13 to 15 days
[31] = preemergence, 62 g ai/ha, 13 to 15 days, scale 0 to 100, 0 = no effect, 100 = complete control

CCOc1cc(C(=O)NCC(F)(F)F)nn1Cc1cc(C(F)(F)F)nn1C [Compound 140]
Barnyardgrass plant response rating [1, 14]: 90 | Barnyardgrass plant response rating [1, 15]: 100 | Corn plant response rating [2, 14]: 10 | Corn plant response rating [2, 15]: 80 | Barnyardgrass plant response rating [3, 16]: 90 | Barnyardgrass plant response rating [3, 17]: 70 | Velvetleaf plant response rating [4, 16]: 80 | Velvetleaf plant response rating [4, 17]: 50 | Wheat plant response rating [5, 16]: 70 | Wheat plant response rating [5, 17]: 40 | Plant response rating, Sedge, Umbrella [6]: 95 | Plant response rating, Ryegrass, Italian ([7]; 4 g ai/ha): 0 | Plant response rating, Ryegrass, Italian ([7]; 8 g ai/ha): 5 | Plant response rating, Ryegrass, Italian ([7]; 16 g ai/ha): 10 | Ryegrass, Italian plant response rating [7, 18]: 55 | Plant response rating, Pigweed [8, 19]: 80 | Plant response rating, Pigweed [8, 20]: 100 | Plant response rating, Pigweed [8, 21]: 100 | Pigweed plant response rating [8, 18]: 100 | Plant response rating, Soybean [9, 19]: 10 | Plant response rating, Soybean [9, 20]: 5 | Plant response rating, Soybean [9, 21]: 5 | Soybean plant response rating [9, 18]: 25 | Plant response rating, Waterhemp [10, 19]: 70 | Plant response rating, Waterhemp [10, 20]: 70 | Plant response rating, Waterhemp [10, 21]: 85 | Waterhemp plant response rating [10, 18]: 95

CCc1cc(-c2ccc(C(F)(F)F)cc2)nn1Cc1ccnc(C(F)(F)F)c1 [Compound 110]
Barnyardgrass plant response rating [1, 14]: 100 | Barnyardgrass plant response rating [1, 15]: 100 | Corn plant response rating [2, 14]: 80 | Corn plant response rating [2, 15]: 90 | Barnyardgrass plant response rating [3, 22]: 90 | Barnyardgrass plant response rating [3, 17]: 80 | Velvetleaf plant response rating [4, 22]: 100 | Velvetleaf plant response rating [4, 17]: 90 | Wheat plant response rating [5, 22]: 90 | Wheat plant response rating [5, 17]: 80 | Plant response rating, Sedge, Umbrella [6]: 80 | Plant response rating (scale of 0 to 100), Pigweed ([8]; Preemergence): 100 | Pigweed plant response rating [8, 18]: 95 | Pigweed plant response rating [8, 23]: 100 | Pigweed plant response rating [8, 24]: 100 | Plant response rating (scale of 0 to 100), Soybean ([9]; Preemergence): 20 | Soybean plant response rating [9, 18]: 10 | Soybean plant response rating [9, 24]: 15 | Plant response rating (scale of 0 to 100), Waterhemp ([10]; Preemergence): 100 | Waterhemp plant response rating [10, 18]: 100 | Waterhemp plant response rating [10, 23]: 100 | Waterhemp plant response rating [10, 24]: 100 | Plant response rating (scale of 0 to 100 where 0 is no effect and 100 is complete control), Ryegrass, Italian [11]: 20 | Ryegrass, Italian plant response rating [11]: 20 | Plant response rating, Ryegrass, Italian [11, 25]: 40 | Plant response rating, Ryegrass, Italian [11, 26]: 35 | Plant response rating (scale of 0 to 100 where 0 is no effect and 100 is complete control), Johnsongrass [12]: 40 | Plant response rating, Johnsongrass [12, 27]: 90 | Plant response rating, Johnsongrass [12, 28]: 75 | Plant response rating (scale of 0 to 100 where 0 is no effect and 100 is complete control), Oat, Wild [13]: 5 | Oat, Wild plant response rating [13]: 25 | Plant response rating, Oat, Wild [13, 25]: 35 | Plant response rating, Oat, Wild [13, 26]: 30

CCc1cc(C(=O)NC2CC2)nn1Cc1ccnc(C(F)(F)F)c1 [Compound 76]
Barnyardgrass plant response rating [1, 29]: 100 | Barnyardgrass plant response rating [1, 14]: 80 | Corn plant response rating [2, 29]: 80 | Corn plant response rating [2, 14]: 50 | Barnyardgrass plant response rating ([3]; Postemergence, 125 g ai/ha, 0 to 100 scale, 0 no effect, 100 complete control): 80 | Barnyardgrass plant response rating [3, 22]: 90 | Velvetleaf plant response rating [4, 22]: 90 | Velvetleaf plant response rating [4, 17]: 30 | Wheat plant response rating [5, 22]: 90 | Wheat plant response rating [5, 17]: 80 | Plant response rating, Sedge, Umbrella [6]: 80 | Plant response rating (scale of 0 to 100), Pigweed ([8]; Preemergence): 100 | Pigweed plant response rating [8, 30]: 100 | Plant response rating, Pigweed [8, 31]: 100 | Pigweed plant response rating [8, 24]: 100 | Plant response rating (scale of 0 to 100), Soybean ([9]; Preemergence): 100 | Soybean plant response rating [9, 30]: 80 | Plant response rating, Soybean [9, 31]: 98 | Soybean plant response rating [9, 24]: 98 | Plant response rating (scale of 0 to 100), Waterhemp ([10]; Preemergence): 100 | Waterhemp plant response rating [10, 30]: 98 | Plant response rating, Waterhemp [10, 31]: 100 | Waterhemp plant response rating [10, 24]: 100 | Plant response rating (scale of 0 to 100 where 0 is no effect and 100 is complete control), Ryegrass, Italian [11]: 5 | Ryegrass, Italian plant response rating [11]: 5 | Plant response rating, Ryegrass, Italian [11, 25]: 10 | Plant response rating, Ryegrass, Italian [11, 26]: 5 | Plant response rating (scale of 0 to 100 where 0 is no effect and 100 is complete control), Johnsongrass [12]: 0 | Johnsongrass plant response rating ([12]; postemergence, 62 g ai/ha, scale 0 to 100): 0 | Plant response rating, Johnsongrass [12, 27]: 25 | Plant response rating, Johnsongrass [12, 28]: 25 | Plant response rating (scale of 0 to 100 where 0 is no effect and 100 is complete control), Oat, Wild [13]: 5 | Oat, Wild plant response rating [13]: 5 | Plant response rating, Oat, Wild [13, 25]: 25 | Plant response rating, Oat, Wild [13, 26]: 5
